Columns and labels:
[1] = test system: Adrenergic α-receptor; experiment: Adrenergic α-receptor blocking effect (inhibition of hypertensive action of i.v. adrenalin hydrochloride); format: in vivo, Wistar strain male rats; settings: relative to prazosin
Protocol: Wistar strain male rats, weighing 250-300 g., were used in this experiment. The rat was anesthetized with pentobarbital sodium and fitted in the right femoral artery with a cannula for determination of blood pressure and in the left femoral vein with another cannula for intravenous injection, the former cannula being connected to an electronic recording system to measure a blood pressure.
Adrenergic α-receptor blocking effect was determined upon whether a hypertensive action with intravenous injection of adrenalin hydrochloride at 0.3 or 1 μg./kg. may be reserved by pretreatment with the test compound.

[2] = test system: spontaneously hypertensive rats (SHR); experiment: Antihypertensive effect, oral administration to spontaneously hypertensive rats (mean blood pressure and heart rate); format: in vivo, rat; settings: for Change in blood pressure after 3 hrs. from administration: Table 1; for Changes in blood pressure (BP) after oral administration / Changes in heart rate (HR) after oral administration: Table 2, male SHR, n=5, p.o.; for Changes in average blood pressures after administration: Table 3
Protocol: Antihypertensive effect was determined by oral administration of the test compound to spontaneously hypertensive rats (hereinafter referred to as SHR).
These SHR were anesthetized with ether and chronically embedded with a cannula for determination of blood pressure so that one end of the said cannula may be placed in abdominal aorta and the other end thereof may be projected out of dorsal neck. When rats regained their body weight before operation in more than 1 week from operation, the test compound was given. Determination was made by measuring a mean blood pressure and a heart rate under unanesthetized and unrestrained conditions with the cannula connected to an electronic recording system. The test compound was suspended in a 1% tragacanth gum solution to make up a concentration so as to be a volume of 5 ml./kg. and then orally given.

[3] = test system: ICR strain male mice; experiment: in vivo; format: in vivo; settings: for No. of deceased animal: 8 animals per group, 1 week
Protocol: (§1) ICR strain male mice, weighing 30-35 g., were deprived of food for 6 hours (water ad libitum) and then used in the experiment. Each group consisted of 8 animals. The test compound was suspended in a 1% tragacanth gum solution so as to be a volume of 40 ml./kg. and orally given. After administration, numbers of deceased animals, changes in body weight and other general states were observed or determined over 1 week.
(§2) Survived mice were autopsyed.

[4] = in vivo; format: in vivo; settings: mouse, in vivo, po; mice
Protocol: as §1, §2

COc1ccc(C=CC(=O)N2CCN(c3nc(N)c4cc(OC)c(OC)cc4n3)CC2)cc1 [Compound No. 8, 2-[4-(4-Methoxycinnamoyl)-piperazin-1-yl]-4-amino-6,7-dimethoxyquinazoline]
α-receptor blocking action as compared with the action of prazosin [1]: 1/100 | Change in blood pressure after 3 hrs. from administration ([2]; SHR, p.o., 10 mg./kg., 3 hrs.): -25 mmHg

CCOc1ccc(C=CC(=O)N2CCN(c3nc(N)c4cc(OC)c(OC)cc4n3)CC2)cc1 [Compound No. 10, 2-[4-(4-Ethoxycinnamoyl)-piperazine-1-yl]-4-amino-6,7-dimethoxyquinazoline]
α-receptor blocking action as compared with the action of prazosin [1]: 1/100 | Change in blood pressure after 3 hrs. from administration ([2]; SHR, p.o., 1 mg./kg., 3 hrs.): -19 mmHg | Change in blood pressure after 3 hrs. from administration ([2]; SHR, p.o., 10 mg./kg., 3 hrs.): -53 mmHg

COc1cc2nc(N3CCN(C(=O)C=Cc4ccc5c(c4)OCO5)CC3)nc(N)c2cc1OC [Compound No. 16, 2-[4-(3,4-Methylenedioxycinnamoyl)-piperazin-1-yl]-4-amino-6,7-dimethoxyquinazoline]
α-receptor blocking action as compared with the action of prazosin [1]: 1/100 | Change in blood pressure after 3 hrs. from administration ([2]; SHR, p.o., 10 mg./kg., 3 hrs.): -13 mmHg

COc1cc2nc(N3CCN(C(=O)c4ccco4)CC3)nc(N)c2cc1OC [Prazosin, reference compound]
time of maximum antihypertensive effect from oral administration ([2]; SHR, p.o.): 1 h | antihypertensive effect, compound compared with prazosin ([2]; SHR, p.o., in words): approximately equal antihypertensive effect to that of the present quinazoline compound after 3 hours | Changes in blood pressure (BP) after oral administration ([2]; 0.3 mg./kg., 1 hr.): -34±5.6 mm.Hg. | Changes in heart rate (HR) after oral administration ([2]; 0.3 mg./kg., 1 hr.): 6.3±3.3 no/min. | Changes in blood pressure (BP) after oral administration ([2]; 0.3 mg./kg., 3 hrs.): -25±3.5 mm.Hg. | Changes in heart rate (HR) after oral administration ([2]; 0.3 mg./kg., 3 hrs.): 5.3±4.6 no/min. | Changes in blood pressure (BP) after oral administration ([2]; 0.3 mg./kg., 6 hrs.): -27±4.4 mm.Hg. | Changes in heart rate (HR) after oral administration ([2]; 0.3 mg./kg., 6 hrs.): 3.2±3.0 no/min. | Changes in blood pressure (BP) after oral administration ([2]; 0.3 mg./kg., 24 hrs.): -1±4.3 mm.Hg. | Changes in heart rate (HR) after oral administration ([2]; 0.3 mg./kg., 24 hrs.): 4.3±4.9 no/min. | Changes in blood pressure (BP) after oral administration ([2]; 1 mg./kg., 1 hr.): -46±2.9 mm.Hg. | Changes in heart rate (HR) after oral administration ([2]; 1 mg./kg., 1 hr.): 7.0±4.4 no/min. | Changes in heart rate (HR) after oral administration ([2]; 1 mg./kg., 3 hrs.): 1.5±2.8 no/min. | Changes in blood pressure (BP) after oral administration ([2]; 1 mg./kg., 6 hrs.): -31±2.9 mm.Hg. | Changes in heart rate (HR) after oral administration ([2]; 1 mg./kg., 6 hrs.): -9.8±6.1 no/min. | Changes in blood pressure (BP) after oral administration ([2]; 1 mg./kg., 24 hrs.): -6±1.9 mm.Hg. | Changes in heart rate (HR) after oral administration ([2]; 1 mg./kg., 24 hrs.): -3.9±2.8 no/min. | Changes in blood pressure (BP) after oral administration ([2]; 3 mg./kg., 1 hr.): -50±6.5 mm.Hg. | Changes in heart rate (HR) after oral administration ([2]; 3 mg./kg., 1 hr.): 12.7±7.8 no/min. | Changes in blood pressure (BP) after oral administration ([2]; 3 mg./kg., 3 hrs.): -31±5.8 mm.Hg. | Changes in heart rate (HR) after oral administration ([2]; 3 mg./kg., 3 hrs.): 17.8±7.7 no/min. | Changes in blood pressure (BP) after oral administration ([2]; 3 mg./kg., 6 hrs.): -34±6.2 mm.Hg. | Changes in heart rate (HR) after oral administration ([2]; 3 mg./kg., 6 hrs.): 9.4±8.3 no/min. | Changes in blood pressure (BP) after oral administration ([2]; 3 mg./kg., 24 hrs.): -3± 5.8 mm.Hg. | Changes in heart rate (HR) after oral administration ([2]; 3 mg./kg., 24 hrs.): 26.8±8.3 no/min. | Changes in average blood pressures after administration ([2]; SHR, p.o., 1 mg./kg., 1 hr.): -46 mmHg | Changes in average blood pressures after administration ([2]; SHR, p.o., 1 mg./kg., 3 hrs.): -37 mmHg | Changes in average blood pressures after administration ([2]; SHR, p.o., 1 mg./kg., 6 hrs.): -31 mmHg | Changes in average blood pressures after administration ([2]; SHR, p.o., 1 mg./kg., 24 hrs.): -6 mmHg | Changes in average blood pressures after administration ([2]; SHR, p.o., 3 mg./kg., 1 hr.): -50 mmHg | Changes in average blood pressures after administration ([2]; SHR, p.o., 3 mg./kg., 3 hrs.): -31 mmHg | Changes in average blood pressures after administration ([2]; SHR, p.o., 3 mg./kg., 6 hrs.): -34 mmHg | Changes in average blood pressures after administration ([2]; SHR, p.o., 3 mg./kg., 24 hrs.): -3 mmHg | No. of deceased animal ([3]; p.o., 1,250 mg./kg.): 0 | No. of deceased animal ([3]; p.o., 2,500 mg./kg.): 0 | No. of deceased animal ([3]; p.o., 5,000 mg./kg.): 0

COc1cc2nc(N3CCN(C(=O)C=Cc4ccco4)CC3)nc(N)c2cc1OC [compound 28, 2-{4-[3-(Furan-2-yl)-acryloyl]-piperazin-1-yl}-4-amino-6,7-dimethoxyquinazoline]
Changes in average blood pressures after administration ([2]; SHR, p.o., 1 mg./kg., 1 hr.): -51 mmHg | Changes in average blood pressures after administration ([2]; SHR, p.o., 1 mg./kg., 3 hrs.): -31 mmHg | Changes in average blood pressures after administration ([2]; SHR, p.o., 1 mg./kg., 6 hrs.): -38 mmHg | Changes in average blood pressures after administration ([2]; SHR, p.o., 1 mg./kg., 24 hrs.): -11 mmHg | Changes in average blood pressures after administration ([2]; SHR, p.o., 3 mg./kg., 1 hr.): -74 mmHg | Changes in average blood pressures after administration ([2]; SHR, p.o., 3 mg./kg., 3 hrs.): -38 mmHg | Changes in average blood pressures after administration ([2]; SHR, p.o., 3 mg./kg., 6 hrs.): -43 mmHg | Changes in average blood pressures after administration ([2]; SHR, p.o., 3 mg./kg., 24 hrs.): -15 mmHg | LD50 at 168 h [4]: > 5000 mg/kg | Body weight gain after 7 days ([3]; p.o., 1,250 mg./kg.): +2.6 g. | No. of deceased animal ([3]; p.o., 1,250 mg./kg.): 0 | Body weight gain after 7 days ([3]; p.o., 2,500 mg./kg.): +3.0 g. | No. of deceased animal ([3]; p.o., 2,500 mg./kg.): 0 | Body weight gain after 7 days ([3]; p.o., 5,000 mg./kg.): +0.2 g. | No. of deceased animal ([3]; p.o., 5,000 mg./kg.): 0

COc1cc2nc(N3CCN(C(=O)C=Cc4ccncc4)CC3)nc(N)c2cc1OC [compound 45, 2-{4-[3-(Pyridin-4-yl)-acryloyl]-piperazin-1-yl}-4-amino-6,7-dimethoxyquinazoline]
Changes in average blood pressures after administration ([2]; SHR, p.o., 3 mg./kg., 1 hr.): -9 mmHg | Changes in average blood pressures after administration ([2]; SHR, p.o., 3 mg./kg., 3 hrs.): -5 mmHg | Changes in average blood pressures after administration ([2]; SHR, p.o., 3 mg./kg., 6 hrs.): -12 mmHg | Changes in average blood pressures after administration ([2]; SHR, p.o., 3 mg./kg., 24 hrs.): 0 mmHg

COc1cc2nc(N3CCCN(C(=O)C=Cc4ccco4)CC3)nc(N)c2cc1OC [compound 46, 2-{4-[3-(Furan-2-yl)-acryloyl]-homopiperazin-1-yl}-4-amino-6,7-dimethoxyquinazoline]
Changes in average blood pressures after administration ([2]; SHR, p.o., 3 mg./kg., 1 hr.): -20 mmHg | Changes in average blood pressures after administration ([2]; SHR, p.o., 3 mg./kg., 3 hrs.): -10 mmHg | Changes in average blood pressures after administration ([2]; SHR, p.o., 3 mg./kg., 6 hrs.): -12 mmHg | Changes in average blood pressures after administration ([2]; SHR, p.o., 3 mg./kg., 24 hrs.): -8 mmHg

COc1cc2nc(N3CCCN(C(=O)C=Cc4cccs4)CC3)nc(N)c2cc1OC [compound 47, 2-{4-[3-(Thiophen-2-yl)-acryloyl]-homopiperazin-1-yl}-4-amino-6,7-dimethoxyquinazoline]
Changes in average blood pressures after administration ([2]; SHR, p.o., 3 mg./kg., 1 hr.): -22 mmHg | Changes in average blood pressures after administration ([2]; SHR, p.o., 3 mg./kg., 3 hrs.): -13 mmHg | Changes in average blood pressures after administration ([2]; SHR, p.o., 3 mg./kg., 6 hrs.): -17 mmHg | Changes in average blood pressures after administration ([2]; SHR, p.o., 3 mg./kg., 24 hrs.): 2 mmHg

COc1cc2nc(N3CCCN(C(=O)C=Cc4cccnc4)CC3)nc(N)c2cc1OC [compound 48, 2-{4-[3-(Pyridin-3-yl)-acryloyl]-homopiperazin-1-yl}-4-amino-6,7-dimethoxyquinazoline]
Changes in average blood pressures after administration ([2]; SHR, p.o., 3 mg./kg., 1 hr.): -9 mmHg | Changes in average blood pressures after administration ([2]; SHR, p.o., 3 mg./kg., 3 hrs.): 0 mmHg | Changes in average blood pressures after administration ([2]; SHR, p.o., 3 mg./kg., 6 hrs.): 0 mmHg | Changes in average blood pressures after administration ([2]; SHR, p.o., 3 mg./kg., 24 hrs.): 2 mmHg

Source: patent US4189484A, “Antihypertensive quinazoline derivatives” (priority 1977, dated 1980)
